Experimental data as given in US20150148415A1, “DERIVATIZED DENDRIMER WITH LOW CITOTOXICITY FOR IN VIVO, EX VIVO, IN VITRO OR IN SITU CHELATION OF HEAVY METALS OR ACTINIDES” (priority 2013, published 2015).

Test system: C57BL/6 mice
Test: In vivo acute toxicity assay, substance given alone (serum biochemistry, kidney histology)
Protocol: Animals. A total of 48 male C57BL/6 mice weighing 25-30 g purchased from the Instituto de Salud Pública (ISP), were used. Animal housing and experiment protocols were approved by the University of Talca in adherence to Conicyt experimental animal administrative regulations. All groups were maintained at a constant temperature (22±1° C.) on a 12-h light/12-h dark cycle (lights-on at 08:00 a.m.) and had free access to food and water.
Animal experimental design. […] Animals were euthanized 48 h later and blood samples were collected from the heart for the assessment of serum urea, creatinine, Lactate Deshidrogenase (LDH), Uric Acid and Calcium
Examination of nephrotoxicity. Mice were anaesthetized with sodium pentobarbitone and blood samples were collected from the heart and the kidneys were removed. Serum levels of urea, creatinine, LDH, Uric Acid and Calcium were determined using commercially available kits according to the protocols provided by Valtek (Valtek Diagnostic, Nuñoa, Chile). Left kidneys were fixed in 10% neutral buffered formaldehyde, embedded in paraffin wax and automatically processed. Sections (3 μm in thickness) of the embedded tissue were stained with hematoxylin-eosin for observation under light microscope.
Statistical analysis. The in vitro data were obtained from at least three independent experiments with three replicates, and all data are expressed as mean±SD. Experimental groups were compared using a one-way analysis of variance (ANOVA) followed by Scheffé's test when the data were normally distributed and by the Kruskal-Wallis test when they were not normally distributed. p-Values <0.05 were considered significant. Statistical tests were performed using GraphPad Prism 5 software, version 5.0 for Mac OS X.

[1] = substance alone ip (UO2 5 mg/kg of uranium; G4-Lys-Fmoc-Cbz 16 mg/kg; G5-Cou 40 mg/kg; EDTA 75 mg/kg), serum 48 h

SMILES: CC(=O)O.CC(=O)O.O.O.[O]=[U]=[O] [UO2^−, UO2(CH3COO)2.2H2O]
- concentration of creatinine (UO2 alone, 5 mg/kg of uranium ip, serum 48 h): 1.7±0.5
- Calcium [1]: 8.8 ± 0.57 mg/dL
- Urea [1]: 226.3 ± 39.4 mg/dL
- Uric Acid [1]: 2.5 ± 0.39 mg/dL
- kidney histology (hematoxylin-eosin) (substance alone ip, 48 h): irreversible damage with necrosis
- LDH (wide spectre toxicity indicator) (substance alone ip, serum 48 h): induced a significant increase of the enzyme
